From patent US8614227B2, “Salt and solvates of a tetrahydroisoquinoline derivative” (Spinifex Pharmaceuticals Pty Ltd, priority 2010, dated 2013)
Like-named read-outs stand apart in the source and are kept apart here.

Legend:
[1] = dog, in vivo, po, 10 mg/kg
Protocol: (§1) The study was designed to compare the PK profiles of the following four forms of Compound 1 administered as single oral capsules in fasted state. […] There was a washout period of 4 days between dosing. The blood samples were collected from each animal at predetermined times on the study Days 1, 4, 8 and 11. The plasma was analyzed for Compound 1 by a validated HPLC-MS/MS assay.
(§2) Descriptive PK parameters were determined by standard model independent methods (Gibaldi and Perrier, 1982) based on the individual plasma concentration-time data. Plasma concentrations were rounded to 3 significant figures. Plasma samples with concentrations below the quantifiable assay limit (BQL<2.00 ng/mL) were assigned values of zero for mean calculations. For PK calculations, BQL was set to zero from the pre-dose time up to the time of the first quantifiable concentration and thereafter was set as missing. Nominal time points were used for all calculations. • Cmax is the observed maximum plasma concentration after dosing. • Tmax is the time to reach Cmax. • T1/2 is apparent half-life calculated by ln(2)/λ where λ is the rate constant fix the log-linear portion of the terminal phase. A minimum of three values in the post-distribution phase of the plasma concentration-time curve is required for calculation of X. • AUC(0-T) is the area under the plasma concentration-time curve from time zero to the time of the last measurable plasma concentration determined using the linear trapezoidal rule. • AUC(0-inf) is the area under the plasma concentration-time curve from time zero to infinity. It is calculated by summing AUC(0-T) and the extrapolated area from the T to infinity.
(§3) PK analyses were performed by noncompartmental analysis using model 200 in WinNonlin Professional 6.1 (Pharsight Corp., Mountain View, Calif.).

pKa of Compound 1 = format: physicochemical
in vivo = settings: male, beagle, dog, po, 10 mg/kg
Protocol: as §1, §2, §3

[2] = Gravimetric vapour sorption (GVS); format: physicochemical
Protocol: Sorption isotherms were obtained using a Hiden IGASorp moisture sorption analyzer, controlled by CFRSorp software. The sample temperature was maintained at 25° C. by a Huber re-circulating water bath. The humidity was controlled by mixing streams of dry and wet nitrogen, with a total flow rate of 250 mL·min^−1. The relative humidity was measured by a calibrated Vaisala RH probe (dynamic range of 0-95% RH), located near the sample. The weight change, (mass relaxation) of the sample as a function of % RH was constantly monitored by the microbalance (accuracy ±0.001 mg).
Typically 10-20 mg of sample was placed in a tared mesh stainless steel basket under ambient conditions. The sample was loaded and unloaded at 40% RH and 25° C. (typical room conditions).
A moisture sorption isotherm was performed as outlined below (2 scans giving 1 complete cycle). The standard isotherm was performed at 25° C. at 10% RH intervals over a 0-90% RH range.
The software uses a least squares minimization procedure together with a model of the mass relaxation, to predict an asymptotic value. The measured mass relaxation value must be within 5% of that predicted by the software, before the next RH value is selected. The minimum equilibration time was set to 1 hour and the maximum to 4 hours.
The sample was recovered after completion of the isotherm and re-analyzed by XRPD.

[3] = Storage of amine salts at elevated humidity (deliquescence); format: physicochemical
Protocol: The tromethamine salt deliquesced at 25° C./94% RH. As a result, neither of these amine salts were suitable for pharmaceutical development.

Question: For `COc1ccc2c(c1OCc1ccccc1)C[C@@H](C(=O)O)N(C(=O)C(c1ccccc1)c1ccccc1)C2` [Compound 1, (S)-2-(diphenylacetyl)-1,2,3,4-tetrahydro-6-methoxy-5-(phenylmethoxy)-3-isoquinoline carboxylic acid], which “Plasma concentration of Compound 1, 0.25 h” value [1] is on record?
Answer: Its value is “BQL”.

Question: And the “Plasma concentration of Compound 1, 0.5 h” value [1]?
Answer: The value was “BQL”.

Question: What about the “Plasma concentration of Compound 1, 0.75 h” value [1] of the same compound?
Answer: Its value is “BQL”.

Question: And the “Plasma concentration of Compound 1, 12 h” value [1]?
Answer: The value was “BQL”.

Question: What about the “Plasma concentration of Compound 1, 24 h” value [1] of the same compound?
Answer: Its value is “BQL”.

Question: And the “Plasma concentration of Compound 1, Predose” value [1]?
Answer: Its value is “BQL”.

Question: And the “Plasma concentration of Compound 1, Predose” value ([1]; male, beagle)?
Answer: Its value is 0.00 ng/mL.

Question: And the “Plasma concentration of Compound 1, 24 h” value ([1]; male, beagle, 24 h)?
Answer: Its value is 0.00 ng/mL.

Question: What about the pKa (pKa of Compound 1) of the same compound?
Answer: Its pKa is ~3.86.

Question: And the AUC(0-inf) (in vivo; Mean AUC(0-inf))?
Answer: Its AUC(0-inf) is 680 ± 412 ng·h/mL.

Question: What about the half-life (in vivo; Mean harmonic T1/2) of the same compound?
Answer: The half-life was 2.11 ± 0.115 h.

Question: And the half-life (in vivo; T1/2)?
Answer: The half-life was 2.18 h.

Question: What about the Tmax (in vivo; Tmax) of the same compound?
Answer: Its Tmax is 1 h.

Question: And the Cmax (in vivo; mean Cmax)?
Answer: The Cmax was 294 ± 238 ng/mL.

Question: What about the Tmax (in vivo; median Tmax) of the same compound?
Answer: Its Tmax is 2 h.

Question: For `COc1ccc2c(c1OCc1ccccc1)C[C@@H](C(=O)[O-])N(C(=O)C(c1ccccc1)c1ccccc1)C2.[Na+]` [material from acetonitrile (MeCN)], which “GVS weight gained by 40% RH” value ([2]; from 0% RH to 40% RH) is on record?
Answer: The value was 6%.

Question: What about the “GVS weight change when taken up to 90% RH” value ([2]; from 40% RH to 90% RH, 25° C.) of the same compound?
Answer: The value was “about 17%”.

Question: And the “GVS total weight drop” value ([2]; from 90% RH to 0% RH)?
Answer: The value was 19%.

Question: And the “GVS weight at 0% RH” value ([2]; taken down to 0% RH, 25° C.)?
Answer: Its value is −2%.

Question: With `COc1ccc2c(c1OCc1ccccc1)C[C@@H](C(=O)O)N(C(=O)C(c1ccccc1)c1ccccc1)C2.NC(CO)(CO)CO` [tromethamine salt] as the compound, how does the “behaviour on storage at 25° C./94% RH” value [3] read?
Answer: The value was “deliquesced”.
